Measured values from paper PMC9506414, “Novel 2,6,9-Trisubstituted Purines as Potent CDK Inhibitors Alleviating Trastuzumab-Resistance of HER2-Positive Breast Cancers” (Pharmaceuticals, 2022).

Legend:
HCC1954 cells = assay: Combination with trastuzumab, growth inhibition; assay type: cell-based, human; details: 40 nM 30d with multiple doses of trastuzumab, 72 h
Protocol: (§1) Additionally, we examined a combination effect in both SK-Br3 and HCC1954 cells.
(§2) Breast-cancer cells in culture media (100 μL volume/well, 5000 SK-Br3 cells/well, 1000 HCC-1954 cells/well) were seeded in tissue culture-treated 96-well plates, and incubated at a cell incubator for 24 h. Serially diluted compounds (3-fold, 10 point from 10 mM, duplicated) were pre-plated and 500 nL of compound solutions were pin-transferred to the cells in the assay plates using pintool system (JANUS liquid handler, PerkinElmer, Waltham, MA, USA) and incubated at a cell incubator for 72 h. Cell-titer Glo^TM reagent (50 μL, Promega Corp., Madison, WI, USA) was added to each well, and the luminescence signal was read using an Envision^TM plate reader (PerkinElmer, Waltham, MA, USA). The titration curve fitting and IC50 values were generated using Prism 7.0 s/w (GraphPad, San Diego, CA, USA).

SK-Br3 cells = assay: Combination with trastuzumab, growth inhibition; assay type: cell-based, human; details: 40 nM 30d with multiple doses of trastuzumab, 72 h
Protocol: as §1, §2

PKAC-alpha = assay: Kinome-wide inhibition profiling; assay type: biochemical, human; details: 10 μM
Protocol: In vitro CDK12/cyclinK assays for all compounds and in vitro kinome-wide inhibition profiling of 30d at 10 μM were performed by a CRO company (Reaction Biology Corp., San Diego, CA, USA).

HIPK2 = molecular target: T1, HIPK2 (Homo sapiens, UniProt Q9H2X6); design: method as in HMS LINCS database; details: 10 μM, ref HMS LINCS database; cited from earlier work
T1 construct: purchased Reaction Biology Corp

CDKL1 = test system: CDKL1; design: method as in HMS LINCS database; details: 10 μM, ref HMS LINCS database; cited from earlier work
TAOK3 = molecular target: T2, TAOK3 (Homo sapiens, UniProt Q9H2K8); design: method as in HMS LINCS database; details: 10 μM, ref HMS LINCS database; cited from earlier work
T2 construct: purchased Reaction Biology Corp

PCTK1 = test system: PCTK1; design: method as in HMS LINCS database; details: 10 μM, ref HMS LINCS database; cited from earlier work
ICK = molecular target: T3, ICK (Homo sapiens, UniProt Q9UPZ9); design: method as in HMS LINCS database; details: 10 μM, ref HMS LINCS database; cited from earlier work
T3 construct: purchased Reaction Biology Corp

HIPK3 = molecular target: T4, HIPK3 (Homo sapiens, UniProt Q9H422); design: method as in HMS LINCS database; details: 10 μM, ref HMS LINCS database; cited from earlier work
T4 construct: purchased Reaction Biology Corp

TAOK2 = molecular target: T5, TAOK2 (Homo sapiens, UniProt Q9UL54); design: method as in HMS LINCS database; details: 10 μM, ref HMS LINCS database; cited from earlier work
T5 construct: purchased Reaction Biology Corp

TAOK1 = molecular target: T6, TAOK1 (Homo sapiens, UniProt Q7L7X3); design: method as in HMS LINCS database; details: 10 μM, ref HMS LINCS database; cited from earlier work
T6 construct: purchased Reaction Biology Corp

ERK8 = test system: ERK8; design: method as in HMS LINCS database; details: 10 μM, ref HMS LINCS database; cited from earlier work
ERK5 = molecular target: T7, ERK5 (Homo sapiens, UniProt Q13164); design: method as in HMS LINCS database; details: 10 μM, ref HMS LINCS database; cited from earlier work
T7 construct: purchased Reaction Biology Corp

CDK4-cyclinD1 = test system: CDK4-cyclinD1; design: method as in HMS LINCS database; details: 10 μM, ref HMS LINCS database; cited from earlier work
YSK1 = molecular target: T8, YSK1 (Homo sapiens, UniProt O00506); design: method as in HMS LINCS database; details: 10 μM, ref HMS LINCS database; cited from earlier work
T8 construct: purchased Reaction Biology Corp

CLK2 = molecular target: T9, CLK2 (Homo sapiens, UniProt P49760); design: method as in HMS LINCS database; details: 10 μM, ref HMS LINCS database; cited from earlier work
T9 construct: purchased Reaction Biology Corp

STK36 = test system: STK36; design: method as in HMS LINCS database; details: 10 μM, ref HMS LINCS database; cited from earlier work
CDK3 = test system: CDK3; design: method as in HMS LINCS database; details: 10 μM, ref HMS LINCS database; cited from earlier work
CDK5 = test system: CDK5; design: method as in HMS LINCS database; details: 10 μM, ref HMS LINCS database; cited from earlier work
CDK7 = test system: CDK7; design: method as in HMS LINCS database; details: 10 μM, ref HMS LINCS database; cited from earlier work

T3 sequence (Q9UPZ9 whole entry): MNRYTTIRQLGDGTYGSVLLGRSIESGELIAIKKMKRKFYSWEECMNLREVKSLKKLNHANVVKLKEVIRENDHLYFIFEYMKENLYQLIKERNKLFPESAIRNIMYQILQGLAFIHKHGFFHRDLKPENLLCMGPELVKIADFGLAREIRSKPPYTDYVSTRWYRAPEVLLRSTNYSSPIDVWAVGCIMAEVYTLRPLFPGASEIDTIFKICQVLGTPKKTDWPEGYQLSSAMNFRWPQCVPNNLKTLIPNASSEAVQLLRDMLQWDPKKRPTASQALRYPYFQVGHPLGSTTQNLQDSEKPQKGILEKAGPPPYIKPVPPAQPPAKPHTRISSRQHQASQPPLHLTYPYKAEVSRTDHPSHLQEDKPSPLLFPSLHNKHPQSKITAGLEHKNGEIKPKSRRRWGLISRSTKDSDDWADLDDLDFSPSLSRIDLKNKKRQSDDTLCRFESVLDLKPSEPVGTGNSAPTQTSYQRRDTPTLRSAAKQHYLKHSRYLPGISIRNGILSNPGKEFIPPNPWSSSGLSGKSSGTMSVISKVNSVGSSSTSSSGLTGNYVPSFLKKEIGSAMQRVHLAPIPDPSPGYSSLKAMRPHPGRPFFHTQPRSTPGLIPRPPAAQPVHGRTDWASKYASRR
T5 sequence (Q9UL54 whole entry): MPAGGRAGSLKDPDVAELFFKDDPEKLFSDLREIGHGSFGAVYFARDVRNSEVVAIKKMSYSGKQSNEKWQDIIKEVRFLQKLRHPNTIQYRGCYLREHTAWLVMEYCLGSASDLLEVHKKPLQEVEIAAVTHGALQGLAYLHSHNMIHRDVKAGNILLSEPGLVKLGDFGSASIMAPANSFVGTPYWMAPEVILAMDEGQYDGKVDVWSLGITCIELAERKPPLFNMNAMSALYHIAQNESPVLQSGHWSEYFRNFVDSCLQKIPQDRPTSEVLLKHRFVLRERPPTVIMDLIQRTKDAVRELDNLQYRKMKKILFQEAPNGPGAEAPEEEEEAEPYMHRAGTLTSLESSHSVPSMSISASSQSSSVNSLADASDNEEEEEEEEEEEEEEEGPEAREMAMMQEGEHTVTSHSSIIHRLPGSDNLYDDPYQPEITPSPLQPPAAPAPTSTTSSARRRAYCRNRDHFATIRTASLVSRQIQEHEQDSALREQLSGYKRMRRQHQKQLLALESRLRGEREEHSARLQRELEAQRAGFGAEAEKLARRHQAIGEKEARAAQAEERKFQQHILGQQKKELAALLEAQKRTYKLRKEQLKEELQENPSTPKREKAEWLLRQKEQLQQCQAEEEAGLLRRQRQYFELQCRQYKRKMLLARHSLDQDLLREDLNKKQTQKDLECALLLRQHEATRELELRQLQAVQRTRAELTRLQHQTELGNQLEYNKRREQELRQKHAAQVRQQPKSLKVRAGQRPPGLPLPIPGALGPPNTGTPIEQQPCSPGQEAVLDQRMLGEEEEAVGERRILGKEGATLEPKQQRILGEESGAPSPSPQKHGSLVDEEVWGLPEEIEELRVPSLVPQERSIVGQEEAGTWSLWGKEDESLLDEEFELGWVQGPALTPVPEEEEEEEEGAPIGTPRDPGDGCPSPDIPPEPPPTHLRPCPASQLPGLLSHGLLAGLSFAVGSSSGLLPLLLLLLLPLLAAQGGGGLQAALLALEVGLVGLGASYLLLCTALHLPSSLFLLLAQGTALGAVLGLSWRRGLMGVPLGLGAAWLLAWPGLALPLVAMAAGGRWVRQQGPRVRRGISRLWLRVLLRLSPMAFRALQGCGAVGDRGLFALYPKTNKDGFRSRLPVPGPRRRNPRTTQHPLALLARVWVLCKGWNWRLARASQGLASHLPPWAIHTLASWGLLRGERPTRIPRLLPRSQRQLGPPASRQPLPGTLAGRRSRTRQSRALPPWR
T6 sequence (Q7L7X3 whole entry): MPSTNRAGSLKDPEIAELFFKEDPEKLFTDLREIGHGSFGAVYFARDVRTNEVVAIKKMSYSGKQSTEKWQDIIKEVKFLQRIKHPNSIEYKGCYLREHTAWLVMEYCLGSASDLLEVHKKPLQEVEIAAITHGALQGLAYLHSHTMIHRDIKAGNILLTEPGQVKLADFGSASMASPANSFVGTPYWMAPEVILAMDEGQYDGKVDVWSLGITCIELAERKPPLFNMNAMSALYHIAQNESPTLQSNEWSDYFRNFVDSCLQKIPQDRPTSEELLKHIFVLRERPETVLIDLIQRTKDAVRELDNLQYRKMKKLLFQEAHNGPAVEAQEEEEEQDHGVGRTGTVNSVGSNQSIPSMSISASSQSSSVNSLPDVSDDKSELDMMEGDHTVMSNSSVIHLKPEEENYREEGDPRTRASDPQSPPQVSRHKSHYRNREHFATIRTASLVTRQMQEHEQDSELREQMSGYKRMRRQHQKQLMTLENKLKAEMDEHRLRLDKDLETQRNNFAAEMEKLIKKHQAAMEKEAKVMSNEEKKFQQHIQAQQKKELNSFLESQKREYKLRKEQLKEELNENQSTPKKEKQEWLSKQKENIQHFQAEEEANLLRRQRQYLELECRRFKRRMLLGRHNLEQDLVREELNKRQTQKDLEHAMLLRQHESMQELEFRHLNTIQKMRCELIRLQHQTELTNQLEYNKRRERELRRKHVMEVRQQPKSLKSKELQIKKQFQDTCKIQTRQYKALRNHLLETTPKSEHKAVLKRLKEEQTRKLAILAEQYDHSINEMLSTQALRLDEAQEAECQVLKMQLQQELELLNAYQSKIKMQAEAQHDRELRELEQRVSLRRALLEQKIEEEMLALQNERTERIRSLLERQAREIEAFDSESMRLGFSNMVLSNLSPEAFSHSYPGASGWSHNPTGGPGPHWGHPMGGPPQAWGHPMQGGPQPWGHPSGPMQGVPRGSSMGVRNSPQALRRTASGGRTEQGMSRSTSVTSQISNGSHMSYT
T7 sequence (Q13164 whole entry): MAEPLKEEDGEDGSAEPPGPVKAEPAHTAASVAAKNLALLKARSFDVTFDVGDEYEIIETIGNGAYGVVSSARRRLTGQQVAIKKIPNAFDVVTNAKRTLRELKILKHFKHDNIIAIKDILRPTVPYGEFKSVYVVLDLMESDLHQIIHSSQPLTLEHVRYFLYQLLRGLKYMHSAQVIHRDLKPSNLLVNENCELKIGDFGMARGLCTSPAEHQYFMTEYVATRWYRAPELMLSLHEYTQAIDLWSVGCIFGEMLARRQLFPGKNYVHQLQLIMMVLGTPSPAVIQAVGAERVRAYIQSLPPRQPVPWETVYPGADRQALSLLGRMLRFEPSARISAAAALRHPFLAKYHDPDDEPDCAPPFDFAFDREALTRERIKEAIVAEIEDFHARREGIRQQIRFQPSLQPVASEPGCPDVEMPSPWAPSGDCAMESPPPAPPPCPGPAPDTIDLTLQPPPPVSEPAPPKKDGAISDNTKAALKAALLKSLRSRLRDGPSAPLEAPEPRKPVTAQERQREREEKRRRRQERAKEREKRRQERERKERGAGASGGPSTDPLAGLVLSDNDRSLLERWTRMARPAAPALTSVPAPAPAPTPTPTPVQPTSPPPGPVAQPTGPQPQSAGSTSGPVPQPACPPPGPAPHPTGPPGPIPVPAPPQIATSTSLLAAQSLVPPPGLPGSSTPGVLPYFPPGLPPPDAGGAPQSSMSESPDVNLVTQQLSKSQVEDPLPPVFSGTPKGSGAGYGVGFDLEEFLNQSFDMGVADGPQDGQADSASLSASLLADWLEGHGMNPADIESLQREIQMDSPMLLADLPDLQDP
T9 sequence (P49760 whole entry): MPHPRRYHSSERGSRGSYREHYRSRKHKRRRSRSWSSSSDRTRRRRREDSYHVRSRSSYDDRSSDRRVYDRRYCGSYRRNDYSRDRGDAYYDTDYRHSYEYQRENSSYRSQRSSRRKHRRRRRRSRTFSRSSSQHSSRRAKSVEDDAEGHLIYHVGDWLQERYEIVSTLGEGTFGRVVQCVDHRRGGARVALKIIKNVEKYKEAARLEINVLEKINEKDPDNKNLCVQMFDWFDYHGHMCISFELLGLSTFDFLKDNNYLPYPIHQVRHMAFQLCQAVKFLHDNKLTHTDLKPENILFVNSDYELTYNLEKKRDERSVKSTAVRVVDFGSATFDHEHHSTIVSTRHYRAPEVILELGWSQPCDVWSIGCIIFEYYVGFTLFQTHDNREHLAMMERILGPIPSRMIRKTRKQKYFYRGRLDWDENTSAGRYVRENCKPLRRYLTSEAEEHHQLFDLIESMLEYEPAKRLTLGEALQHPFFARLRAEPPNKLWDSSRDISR
T2 sequence (Q9H2K8 whole entry): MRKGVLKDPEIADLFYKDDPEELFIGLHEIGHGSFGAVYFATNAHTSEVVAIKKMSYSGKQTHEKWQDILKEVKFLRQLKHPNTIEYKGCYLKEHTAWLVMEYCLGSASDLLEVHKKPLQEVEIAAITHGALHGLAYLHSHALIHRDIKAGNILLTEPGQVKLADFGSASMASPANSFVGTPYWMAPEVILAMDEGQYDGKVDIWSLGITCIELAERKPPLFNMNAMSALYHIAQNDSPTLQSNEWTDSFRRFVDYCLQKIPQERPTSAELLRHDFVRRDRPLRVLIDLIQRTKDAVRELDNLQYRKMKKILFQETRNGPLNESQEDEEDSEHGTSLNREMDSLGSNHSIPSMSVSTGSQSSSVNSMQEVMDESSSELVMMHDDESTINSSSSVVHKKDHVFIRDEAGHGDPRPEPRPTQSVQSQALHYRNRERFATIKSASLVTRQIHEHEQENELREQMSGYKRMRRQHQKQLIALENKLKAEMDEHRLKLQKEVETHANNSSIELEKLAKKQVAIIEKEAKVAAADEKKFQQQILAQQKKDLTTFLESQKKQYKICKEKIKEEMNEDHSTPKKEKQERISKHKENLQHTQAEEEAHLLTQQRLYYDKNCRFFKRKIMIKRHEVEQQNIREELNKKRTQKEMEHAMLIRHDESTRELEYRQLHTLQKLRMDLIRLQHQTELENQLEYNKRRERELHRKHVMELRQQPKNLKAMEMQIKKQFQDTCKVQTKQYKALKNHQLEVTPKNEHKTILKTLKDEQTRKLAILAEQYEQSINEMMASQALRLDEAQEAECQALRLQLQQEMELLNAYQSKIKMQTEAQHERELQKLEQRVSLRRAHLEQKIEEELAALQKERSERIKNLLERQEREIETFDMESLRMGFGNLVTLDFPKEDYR

Structure (SMILES) | combination effect with trastuzumab in growth inhibition (HCC1954 cells) | combination effect with trastuzumab in growth inhibition (SK-Br3 cells) | % remaining activity (PKAC-alpha) [%] | % control (HIPK2) [%] | % control (CDKL1) [%] | % control (TAOK3) [%] | % control (PCTK1) [%] | % control (ICK) [%] | % control (HIPK3) [%] | % control (TAOK2) [%] | % control (TAOK1) [%] | % control (ERK8) [%] | % control (ERK5) [%] | % control (CDK4-cyclinD1) [%] | % control (YSK1) [%] | % control (CLK2) [%] | % control (STK36) [%] | % control (CDK3) [%] | % control (CDK5) [%] | % control (CDK7) [%]
CCn1cnc2c(NCc3ccc(-c4ccccn4)nc3)nc(-c3ccc(N)nc3)nc21 [Compound 30d, N-([2,2′-Bipyridin]-5-ylmethyl)-2-(6-aminopyridin-3-yl)-9-ethyl-9H-purin-6-amine] | modest level of synergism | modest level of synergism | 62.4 | – | – | – | – | – | – | – | – | – | – | – | – | – | – | – | – | –
CCc1cnn2c(NCc3ccc[n+]([O-])c3)cc(N3CCCC[C@H]3CCO)nc12 [Dinaciclib] | – | – | – | 3.6 | 9.1 | 3.8 | 0.3 | 0.9 | 4.4 | 4.8 | 3.1 | 1.0 | 2.9 | 0.1 | 9.2 | 4.2 | 7.8 | 0.3 | 1.8 | 0.4
